{
  "source": "patent US20220401514A1",
  "about": "“ANTIMICROBIAL, BACTERIOPHAGE-DERIVED POLYPEPTIDES AND THEIR USE AGAINST GRAM-NEGATIVE AND ACID-FAST BACTERIA” (CONTRAFECT CORPORATION, priority 2019, published 2022)",
  "key": {"M. intracellulare": {"tested_on": "M. intracellulare", "test": "45 hr MIC against M. intracellulare (NTM)", "format": "cell-based, Mycobacterium intracellulare", "settings": "M. intracellulare (Cuttino and McCabe) Runyon ATCC 13950"}, "M. avium": {"tested_on": "M. avium", "test": "45 hr MIC against M. avium (NTM)", "format": "cell-based, Mycobacterium avium", "settings": "M. avium Chester ATCC 700898"}, "[1]": {"test": "Stability assessment in 100% CAA", "format": "in vitro ADME", "set-up": "unit not given beside the values", "description": "Stability was assessed after incubation in 100% human serum at 37° C. after 10 minutes, 1 hour, and 2 hours.\nStability assessment was further conducted in 100% CAA and rabbit serum using the same methodology discussed above."}, "[2]": {"tested_on": "P. aeruginosa strain CFS-1292", "test": "MIC at pH 6, pH 7 and pH 8", "format": "cell-based, Pseudomonas aeruginosa", "description": "The Chp peptides were further evaluated at varying pH levels. The MIC values were determined at pH 6, pH 7, and pH 8 for 18 different Chp peptides against P. aeruginosa strain CFS-1292. […]"}, "Acinetobacter baumannii": {"tested_on": "Acinetobacter baumannii", "test": "microbe, parasite or virus in culture", "format": "cell-based"}, "[3]": {"tested_on": "Mycobacterium tuberculosis strains", "method": "MIC values for various Chp peptides were determined using the CLSI method for broth microdilution in 96-well microtiter format.\nNext, MIC values for various Chp peptides were determined using the CLSI method above for broth microdilution in 96-well microtiter format for two different Mycobacterium tuberculosis strains. The MIC was determined as explained above for the NTM strains."}, "Pseudomonas aeruginosa": {"tested_on": "Pseudomonas aeruginosa", "test": "microbe, parasite or virus in culture", "format": "cell-based", "settings": "for MIC: CAA without human serum"}, "Escherichia coli": {"tested_on": "Escherichia coli", "test": "microbe, parasite or virus in culture", "format": "cell-based", "summary_of_the_method": "(§1)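 Peptide MICs were determined by growth inhibition in CAA medium supplemented with human serum.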"}, "Enterobacter cloacae": {"tested_on": "Enterobacter cloacae", "test": "microbe, parasite or virus in culture", "format": "cell-based", "summary_of_the_method": "as §1"}, "[4]": {"tested_on": "P. aeruginosa strain CFS-1292", "test": "MIC in presence and absence of NaCl (140 mM)", "format": "cell-based, Pseudomonas aeruginosa", "description": "Certain Chp peptides were evaluated over a range of physiological NaCl levels and pH values, and were further evaluated for activity in the presence of various divalent cations."}, "S. maltophilia": {"tested_on": "S. maltophilia", "test": "MIC against S. maltophilia isolates", "format": "cell-based, Stenotrophomonas maltophilia", "summary_of_the_method": "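MIC in μg/mL for Chp peptides across several S. maltophilia isolates, n denoting the number of isolates tested.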"}, "[5]": {"tested_on": "P. aeruginosa strain CFS-1292", "test": "MIC in presence of mouse, rat, rabbit and human serum ([…] each)", "format": "cell-based, Pseudomonas aeruginosa", "settings": "P. aeruginosa CFS-1292", "description": "The activity of several Chp peptides against P. aeruginosa strain CFS-1292 in animal serum was evaluated. […] Rat, mouse, and rabbit serum were all obtained from pooled gender samples."}, "[6]": {"tested_on": "carbapenem-resistant P. aeruginosa clinical isolate CFS-1292", "test": "MIC by modified CLSI broth microdilution against P. aeruginosa CFS-1292 (CAA, CAA + human serum)", "format": "cell-based, Pseudomonas aeruginosa", "settings": "100% CAA; 1st run or single value"}, "[7]": {"tested_on": "M. kansasii Hauduroy ATCC 12478", "test": "45 hr MIC against M. kansasii (NTM), Mueller Hinton broth", "format": "cell-based, Mycobacterium kansasii"}, "[8]": {"settings": "A. baumannii isolates (n per peptide in table)"}, "[9]": {"settings": "P. aeruginosa isolates (n per peptide in table)"}, "[10]": {"settings": "E. coli isolates (n per peptide in table)"}, "[11]": {"settings": "E. cloacae isolates (n per peptide in table)"}, "[12]": {"settings": "S. maltophilia isolates (n per peptide in table)"}},
  "note": "Like-named read-outs stand apart in the source and are kept apart here.",
  "data": [
    {"sequence": "MARRRYRLPRRRSRRLFSRTALRMHPRNRLRRIMRGGIRF [Chp6]", "values": [
      {"measurement": "45 hr MIC", "setting": "M. intracellulare", "value": 0.5, "unit": "µg/mL"},
      {"measurement": "45 hr MIC", "setting": "M. avium", "value": 1, "unit": "µg/mL"},
      {"measurement": "MIC (100% CAA)", "setting": "[1]", "value": 0.25},
      {"measurement": "MIC", "setting": "[2]; CAA media (pH 7)", "value": 1, "unit": "µg/mL"},
      {"measurement": "MIC", "setting": "[2]; pH 6", "value": 2, "unit": "µg/mL"},
      {"measurement": "MIC", "setting": "[2]; pH 7", "value": 0.25, "unit": "µg/mL"},
      {"measurement": "MIC", "setting": "[2]; pH 8", "value": 1, "unit": "µg/mL"},
      {"measurement": "MIC50", "setting": "Acinetobacter baumannii; [8]", "value": 0.25, "unit": "µg/mL"},
      {"measurement": "MIC100", "setting": "Acinetobacter baumannii; [8]", "value": 0.5, "unit": "µg/mL"},
      {"measurement": "MIC Range", "setting": "Acinetobacter baumannii; [8]", "value": "0.125 to 1", "unit": "µg/mL"},
      {"measurement": "MIC", "setting": "Acinetobacter baumannii; Acinetobacter baumannii (clinical isolate HSS), RSC 30, CAA without human serum", "value": 2, "unit": "µg/mL"},
      {"measurement": "MIC", "setting": "Acinetobacter baumannii; Acinetobacter baumannii (clinical isolate HSS), RSC 32, CAA without human serum", "value": 2, "unit": "µg/mL"},
      {"measurement": "MIC", "setting": "Acinetobacter baumannii; Acinetobacter baumannii ATCC BAA 747, CAA supplemented with human serum", "value": 1, "unit": "µg/mL"},
      {"measurement": "MIC", "setting": "[3]; Mycobacterium tuberculosis (Zopf) Lehmann and Neumann ATCC 25177", "value": 32, "unit": "µg/mL"},
      {"measurement": "MIC", "setting": "[3]; Mycobacterium tuberculosis (Zopf) Lehmann and Neumann ATCC 35817", "value": 4, "unit": "µg/mL"},
      {"measurement": "MIC", "setting": "Pseudomonas aeruginosa; P. aeruginosa 453 (Human clinical isolate, HSS), RSC 1292", "value": 2, "unit": "µg/mL"},
      {"measurement": "MIC", "setting": "Pseudomonas aeruginosa; P. aeruginosa (ATCC 14213, human hip wound), RSC 1111", "value": 4, "unit": "µg/mL"},
      {"measurement": "MIC", "setting": "Pseudomonas aeruginosa; P. aeruginosa (ATCC 15152, abscess in middle ear), RSC 1110", "value": 2, "unit": "µg/mL"},
      {"measurement": "MIC", "setting": "Pseudomonas aeruginosa; P. aeruginosa (ATCC 15692, infected wound), RSC 489", "value": 2, "unit": "µg/mL"},
      {"measurement": "MIC", "setting": "Pseudomonas aeruginosa; P. aeruginosa (ATCC 15692, infected wound), RSC 1115", "value": 4, "unit": "µg/mL"},
      {"measurement": "MIC", "setting": "Pseudomonas aeruginosa; P. aeruginosa (ATCC 17646, human liver abscess), RSC 1109", "value": 4, "unit": "µg/mL"},
      {"measurement": "MIC", "setting": "Pseudomonas aeruginosa; P. aeruginosa (ATCC 19142, tracheobronchial secretion), RSC 1108", "value": 2, "unit": "µg/mL"},
      {"measurement": "MIC", "setting": "Pseudomonas aeruginosa; P. aeruginosa (ATCC 25102, bacteriophage host), RSC 1114", "value": 2, "unit": "µg/mL"},
      {"measurement": "MIC", "setting": "Pseudomonas aeruginosa; P. aeruginosa (ATCC 27853, MIC control strain), RSC 815", "value": 1, "unit": "µg/mL"},
      {"measurement": "MIC", "setting": "Pseudomonas aeruginosa; P. aeruginosa (ATCC BAA-27, lab strain), RSC 1113", "value": 2, "unit": "µg/mL"},
      {"measurement": "MIC", "setting": "Pseudomonas aeruginosa; P. aeruginosa (PAO1, alternate source, HER1018), RSC 490", "value": 1, "unit": "µg/mL"},
      {"measurement": "MIC50", "setting": "Pseudomonas aeruginosa; [9]", "value": 1, "unit": "µg/mL"},
      {"measurement": "MIC100", "setting": "Pseudomonas aeruginosa; [9]", "value": 1, "unit": "µg/mL"},
      {"measurement": "MIC Range", "setting": "Pseudomonas aeruginosa; [9]", "value": "0.5 to 1", "unit": "µg/mL"},
      {"measurement": "MIC", "setting": "Escherichia coli; E. coli (ATCC 25922, MIC control strain), RSC 813, CAA without human serum", "value": 2, "unit": "µg/mL"},
      {"measurement": "MIC", "setting": "Escherichia coli; E. coli (HM346, colon, Crohn's disease), RSC 1212, CAA without human serum", "value": 2, "unit": "µg/mL"},
      {"measurement": "MIC50", "setting": "Escherichia coli; [10]", "value": 0.5, "unit": "µg/mL"},
      {"measurement": "MIC100", "setting": "Escherichia coli; [10]", "value": 1, "unit": "µg/mL"},
      {"measurement": "MIC Range", "setting": "Escherichia coli; [10]", "value": "0.25 to 2", "unit": "µg/mL"},
      {"measurement": "MIC", "setting": "Escherichia coli; Escherichia coli ATCC 25922, CAA supplemented with human serum", "value": 1, "unit": "µg/mL"},
      {"measurement": "MIC50", "setting": "Enterobacter cloacae; [11]", "value": 0.5, "unit": "µg/mL"},
      {"measurement": "MIC100", "setting": "Enterobacter cloacae; [11]", "value": 1, "unit": "µg/mL"},
      {"measurement": "MIC Range", "setting": "Enterobacter cloacae; [11]", "value": "0.25 to 2", "unit": "µg/mL"},
      {"measurement": "MIC", "setting": "Enterobacter cloacae; Enterobacter cloacae (ATCC 13047, MIC control strain), RSC 1240, CAA without human serum", "value": 4, "unit": "µg/mL"},
      {"measurement": "MIC", "setting": "Enterobacter cloacae; Enterobacter cloacae ATCC 13047, CAA supplemented with human serum", "value": 2, "unit": "µg/mL"},
      {"measurement": "Fold change in MIC", "setting": "[4]; CAA + 140 mM NaCl versus CAA without added NaCl", "value": 1},
      {"measurement": "MIC, CAA + 140 mM NaCl", "setting": "[4]; CAA + 140 mM NaCl, P. aeruginosa CFS-1292", "value": 0.5, "unit": "µg/mL"},
      {"measurement": "MIC, CAA (no added NaCl)", "setting": "[4]; CAA, no added NaCl, P. aeruginosa CFS-1292", "value": 0.5, "unit": "µg/mL"},
      {"measurement": "MIC50", "setting": "S. maltophilia; [12]", "value": 0.5, "unit": "µg/mL"},
      {"measurement": "MIC100", "setting": "S. maltophilia; [12]", "value": 1, "unit": "µg/mL"},
      {"measurement": "MIC Range", "setting": "S. maltophilia; [12]", "value": "0.25 to 1", "unit": "µg/mL"},
      {"measurement": "activity against S. maltophilia", "setting": "S. maltophilia; Table 45 isolates", "value": "active"},
      {"measurement": "MIC BALB/C Mouse Serum", "setting": "[5]; BALB/C mouse serum […]", "value": 32, "unit": "µg/mL"},
      {"measurement": "MIC CAA", "setting": "[5]; CAA", "value": 1, "unit": "µg/mL"},
      {"measurement": "MIC New Zealand White Rabbit Serum", "setting": "[5]; New Zealand White rabbit serum […]", "value": 4, "unit": "µg/mL"},
      {"measurement": "MIC Sprague Dawley Rat Serum", "setting": "[5]; Sprague Dawley rat serum […]", "value": 4, "unit": "µg/mL"},
      {"measurement": "MIC Human Serum", "setting": "[5]; human serum […]", "value": 1, "unit": "µg/mL"},
      {"measurement": "MIC (μg/mL) against CFS-1292 in 100% CAA (1st run/2nd run)", "setting": "[6]", "value": 0.5, "unit": "µg/mL"},
      {"measurement": "45 hr MIC", "setting": "[7]", "value": 1, "unit": "µg/mL"}
    ]}
  ]
}
